Results on 1 compound are retold here after article PMC7382296, “Discovery of potent thrombin inhibitors from a protease-focused DNA-encoded chemical library” (Proceedings of the National Academy of Sciences of the …, 2020).

The target in the assay is T1, thrombin (Homo sapiens, UniProt P00734).
T1 construct: gene F2
The experiment in a line: thrombin inhibition dose-response, apparent Ki. Type of assay: biochemical.

With `CNC(=O)[C@@H]1CN(C(=O)[C@H](Cc2ccccc2CNC(=N)N)NC(=O)N(C)C2CCOc3ccccc32)C[C@H]1c1ccc(OC)cc1` (stereo partly shown) [compound 5], the Ki was 1 nM.
